Reference: US11110088B2, “Imidazopyrazine inhibitors of Bruton's tyrosine kinase” (Acerta Pharma B.V., priority 2015, dated 2021)

How the values were obtained:
Blk = Blk (Homo sapiens (Human), UniProt P51451); test: Blk Z-LYTE assay (Life Technologies); assay type: biochemical; settings: Z-LYTE assay performed at Life Technologies
ErbB2 = ErbB2 (Homo sapiens (Human), UniProt P04626); test: ErbB2 Z-LYTE assay (Life Technologies); assay type: biochemical; settings: Z-LYTE assay performed at Life Technologies
BTK = BTK (Homo sapiens (Human), UniProt Q06187); test: BTK enzyme activity, IMAP assay; assay type: biochemical; settings: 60 min pre-incubation; 5 μM ATP
Sequence of BTK (Q06187 whole entry): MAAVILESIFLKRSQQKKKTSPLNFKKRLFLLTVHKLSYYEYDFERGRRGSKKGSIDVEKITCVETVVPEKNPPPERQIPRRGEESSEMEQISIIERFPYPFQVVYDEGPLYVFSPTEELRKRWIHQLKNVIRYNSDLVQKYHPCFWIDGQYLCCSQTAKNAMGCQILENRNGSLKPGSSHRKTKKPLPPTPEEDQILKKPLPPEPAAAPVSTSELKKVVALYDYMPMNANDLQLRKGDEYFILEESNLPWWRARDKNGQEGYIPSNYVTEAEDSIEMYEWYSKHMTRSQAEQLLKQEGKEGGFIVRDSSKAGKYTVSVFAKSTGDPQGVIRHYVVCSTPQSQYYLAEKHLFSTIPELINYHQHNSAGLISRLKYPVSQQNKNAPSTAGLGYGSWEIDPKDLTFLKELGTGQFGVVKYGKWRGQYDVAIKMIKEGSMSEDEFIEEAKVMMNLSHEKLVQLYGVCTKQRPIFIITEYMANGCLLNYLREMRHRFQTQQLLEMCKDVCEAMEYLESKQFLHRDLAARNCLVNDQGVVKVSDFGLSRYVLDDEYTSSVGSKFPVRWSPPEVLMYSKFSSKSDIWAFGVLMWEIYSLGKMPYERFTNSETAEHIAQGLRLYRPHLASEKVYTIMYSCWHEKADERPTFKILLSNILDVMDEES
Protocol: BTK enzyme activity is measured using the IMAP (immobilized metal ion affinity-based fluorescence polarization) assay as outlined below.
BTK enzyme (His-BTK (Millipore catalog #14-552)), is diluted to 0.4 U/mL in KR buffer (10 mM Tris-HCl, 10 mM MgCl2, 0.01% Tween-20, 0.05% NaN3, 1 mM DTT, 2 mM MnCl2, pH 7.2).
(§1) Serial dilutions log 10 from 2 mM to 63.2 nM of test compounds are made in 100% DMSO. The dilutions in DMSO are then diluted 50-fold in KR-buffer. Final compound concentration range in the assay ranged from 10 μM to 0.316 nM.
The assay is performed as follows: 5 μL/well of test compound in KR buffer (final DMSO concentration in the assay is 1%) is mixed with 5 µl/well of 0.4 U/mL BTK enzyme (final concentration in the assay is 0.1 U/mL). Test compounds and BTK enzyme are pre-incubated 60 minutes at room temperature, before adding 5 μL/well of 200 nM Fluorescin labeled substrate peptide (Blk/Lyntide substrate, e.g. #R7188/#R7233, Molecular Devices) in KR-buffer. Final peptide substrate concentration in assay is 50 nM. […] Following incubation for 2 hours at room temperature the enzyme reaction is stopped by adding 40 μL/well IMAP Progressive Binding Solution (according to suppliers (Molecular Devices) protocol using 75% 1× buffer A and 25% 1× buffer B with 1:600 Progressive Binding Solution). After 60 min incubation at room temperature in the dark the FP signal is read. Fluorescence at 535 nm is measured using parallel and perpendicular filters to determine differences in rotation due to binding of the phosphorylated substrate peptide to the beads. Values are calculated as percentage of the difference in readout (ΔmPi) of the controls with and without ATP. IC50 values are determined by curve fitting of the experimental results using Activity Base.

Txk = Txk (Homo sapiens (Human), UniProt P42681); test: TXK enzyme activity, IMAP assay; assay type: biochemical; settings: 60 min pre-incubation; 1 μM ATP
Sequence of Txk (P42681 whole entry): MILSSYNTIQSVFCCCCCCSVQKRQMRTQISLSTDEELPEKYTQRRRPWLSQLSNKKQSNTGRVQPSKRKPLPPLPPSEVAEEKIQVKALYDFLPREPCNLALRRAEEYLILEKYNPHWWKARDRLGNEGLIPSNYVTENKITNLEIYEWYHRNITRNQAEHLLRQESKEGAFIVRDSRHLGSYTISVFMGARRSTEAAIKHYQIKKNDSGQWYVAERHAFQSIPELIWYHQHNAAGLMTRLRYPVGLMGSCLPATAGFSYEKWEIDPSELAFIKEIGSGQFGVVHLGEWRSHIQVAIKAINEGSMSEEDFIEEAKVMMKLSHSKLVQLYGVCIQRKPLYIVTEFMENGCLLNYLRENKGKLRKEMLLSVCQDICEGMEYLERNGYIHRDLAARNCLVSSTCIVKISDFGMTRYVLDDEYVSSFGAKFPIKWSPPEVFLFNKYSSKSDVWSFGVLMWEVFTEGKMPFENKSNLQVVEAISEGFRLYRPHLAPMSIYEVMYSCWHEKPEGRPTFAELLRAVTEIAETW
Protocol: TXK enzyme activity is measured using the IMAP (immobilized metal ion affinity-based fluorescence polarization) assay as outlined below.
TXK enzyme (Millipore #14-761), is diluted to 2.5 U/mL in KR buffer (10 mM Tris-HCl, 10 mM MgCl2, 0.01% Tween-20, 0.1% NaN3, 1 mM DTT, 2 mM MnCl2, pH 7.5).
as §1
The assay is performed as follows: 5 μL/well of test compound in KR buffer (final DMSO concentration in the assay is 1%) is mixed with 5 μL/well of 2.5 U/mL TXK enzyme (final concentration in the assay is 0.625 U/mL (4.4 nM)). Test compounds and TXK enzyme are pre-incubated 60 minutes at room temperature, before adding 5 μL/well of 200 nM Fluorescin labeled substrate peptide (Blk/Lyntide substrate #R7188, Molecular Devices) in KR-buffer. Final peptide substrate concentration in assay is 50 nM. […] Following incubation for 2 hours at room temperature the enzyme reaction is stopped by adding 40 μL/well IMAP Progressive Binding Solution (according to suppliers (Molecular Devices) protocol using 60% 1× buffer A and 40% 1× buffer B with 800× diluted beads (Progressive Binding System, Molecular Devices). After 60 min incubation at room temperature in the dark the FP signal is read. Fluorescence at 535 nm is measured using parallel and perpendicular filters to determine differences in rotation due to binding of the phosphorylated substrate peptide to the beads. Values are calculated as percentage of the difference in readout (ΔmPi) of the controls with and without ATP. IC50 values are determined by curve fitting of the experimental results using Activity Base.

Bmx = Bmx (Homo sapiens (Human), UniProt P51813); test: BMX enzyme activity, IMAP assay; assay type: biochemical; settings: 60 min pre-incubation; 5 μM ATP
Protocol: BMX enzyme activity is measured using the IMAP (immobilized metal ion affinity-based fluorescence polarization) assay as outlined below.
(§2) The dilutions in DMSO are then diluted 50-fold in KR-buffer.
(§3) Test compounds and BMX enzyme are pre-incubated 60 minutes at room temperature, before adding 5 μL/well of 200 nM Fluorescin labeled substrate peptide (Blk/Lyntide substrate #R7188, Molecular Devices) in KR-buffer. Final peptide substrate concentration in assay is 50 nM. […] IC50 values are determined by curve fitting of the experimental results using Activity Base.

Jak3 = Jak3 (Homo sapiens (Human), UniProt P52333); test: Jak3 Z-LYTE assay (Life Technologies); assay type: biochemical; settings: Z-LYTE assay performed at Life Technologies
Sequence of Jak3 (P52333 whole entry): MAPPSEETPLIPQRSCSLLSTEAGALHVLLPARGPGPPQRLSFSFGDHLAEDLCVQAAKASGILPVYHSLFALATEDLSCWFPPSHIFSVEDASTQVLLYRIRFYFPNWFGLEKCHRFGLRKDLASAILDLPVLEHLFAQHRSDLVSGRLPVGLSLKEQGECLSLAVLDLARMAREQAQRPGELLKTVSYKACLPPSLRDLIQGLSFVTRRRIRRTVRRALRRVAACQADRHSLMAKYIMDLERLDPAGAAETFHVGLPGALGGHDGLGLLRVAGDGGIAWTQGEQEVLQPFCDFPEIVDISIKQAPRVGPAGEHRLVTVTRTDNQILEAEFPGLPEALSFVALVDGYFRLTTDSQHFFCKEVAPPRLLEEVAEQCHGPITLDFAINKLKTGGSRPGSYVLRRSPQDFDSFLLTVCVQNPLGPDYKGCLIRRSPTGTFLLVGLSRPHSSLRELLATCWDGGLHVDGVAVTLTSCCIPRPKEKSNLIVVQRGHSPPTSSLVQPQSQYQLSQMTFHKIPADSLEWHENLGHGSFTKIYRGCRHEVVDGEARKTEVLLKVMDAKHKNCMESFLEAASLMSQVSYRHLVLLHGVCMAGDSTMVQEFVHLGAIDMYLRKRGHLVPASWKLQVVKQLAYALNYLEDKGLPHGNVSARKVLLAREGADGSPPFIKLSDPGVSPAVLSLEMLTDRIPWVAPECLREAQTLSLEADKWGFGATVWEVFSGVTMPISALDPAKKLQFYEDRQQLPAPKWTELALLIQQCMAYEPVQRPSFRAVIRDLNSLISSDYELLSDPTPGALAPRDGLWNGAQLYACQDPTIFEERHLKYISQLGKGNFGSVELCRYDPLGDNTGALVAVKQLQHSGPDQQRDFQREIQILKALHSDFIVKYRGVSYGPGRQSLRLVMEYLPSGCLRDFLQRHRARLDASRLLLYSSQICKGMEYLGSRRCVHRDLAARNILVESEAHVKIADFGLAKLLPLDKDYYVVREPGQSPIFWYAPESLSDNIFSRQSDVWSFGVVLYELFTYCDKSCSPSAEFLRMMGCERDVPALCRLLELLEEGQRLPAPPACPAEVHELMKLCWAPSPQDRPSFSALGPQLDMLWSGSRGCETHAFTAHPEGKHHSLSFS

[1] = tested on: CD69 in CD19+ B cells of anti-IgM stimulated PBMCs; test: Human peripheral blood mononuclear cell (PBMC) CD69 assay; assay type: cell-based; settings: Homo sapiens, PBMC, 2 h compound, then anti-IgM 18 hours
Protocol: Example 44—Human Peripheral Blood Mononuclear Cell (PBMC) CD69 Assay
Whole blood was collected in heparin-coated Vacutainer tubes (BD Biosciences, San Jose, Calif.) and used for isolation of PBMCs using Ficoll-Hypaque (Pharmacia, Uppsala, Sweden). Isolated PBMCs were cryopreserved in 90% FCS/10% DMSO until later use.
Cells from cryogenic storage were thawed in a 37° C. water bath, diluted with RPMI/1% FCS, washed 2 times, and then plated at 1×10^5 cells per well in RPMI/10% FCS.
Serial dilutions log 10 from 10 mM to 316 nM of test compounds are made in 100% DMSO, followed by a 100-fold dilution into RPMI/1% FCS. For each well, 10 μL was then transferred to the deep well plate containing 90 μL of PBMC cells. Final compound concentration range in the assay ranged from 10 μM to 0.316 nM, with a final DMSO concentration of 0.1%. PBMCs are then incubated for 2 h at 37° C. in presence or absence of test compounds, prior to stimulation with goat F(ab′)2 anti-IgM (Southern Biotech, #2022-14, final concentration in assay 5 μg/mL) for 18 hours.
Following stimulation with anti-IgM, PBMCs were incubated on ice for 30 min with anti-CD69-FITC, anti-CD19-BV421 (BD Biosciences #555530 and #562440, respectively) and 7AAD (Life Technologies #A1310). Flow cytometry was performed and fluorescence values were obtained from the CD69-FITC channel in CD19+ gated life B cells. ECso values are determined by curve fitting of the experimental results using GraphPad Prism.

ErbB4 = ErbB4 (Homo sapiens (Human), UniProt Q15303); test: ErbB4 Z-LYTE assay (Life Technologies); assay type: biochemical; settings: Z-LYTE assay performed at Life Technologies
Sequence of ErbB4 (Q15303 26-1308): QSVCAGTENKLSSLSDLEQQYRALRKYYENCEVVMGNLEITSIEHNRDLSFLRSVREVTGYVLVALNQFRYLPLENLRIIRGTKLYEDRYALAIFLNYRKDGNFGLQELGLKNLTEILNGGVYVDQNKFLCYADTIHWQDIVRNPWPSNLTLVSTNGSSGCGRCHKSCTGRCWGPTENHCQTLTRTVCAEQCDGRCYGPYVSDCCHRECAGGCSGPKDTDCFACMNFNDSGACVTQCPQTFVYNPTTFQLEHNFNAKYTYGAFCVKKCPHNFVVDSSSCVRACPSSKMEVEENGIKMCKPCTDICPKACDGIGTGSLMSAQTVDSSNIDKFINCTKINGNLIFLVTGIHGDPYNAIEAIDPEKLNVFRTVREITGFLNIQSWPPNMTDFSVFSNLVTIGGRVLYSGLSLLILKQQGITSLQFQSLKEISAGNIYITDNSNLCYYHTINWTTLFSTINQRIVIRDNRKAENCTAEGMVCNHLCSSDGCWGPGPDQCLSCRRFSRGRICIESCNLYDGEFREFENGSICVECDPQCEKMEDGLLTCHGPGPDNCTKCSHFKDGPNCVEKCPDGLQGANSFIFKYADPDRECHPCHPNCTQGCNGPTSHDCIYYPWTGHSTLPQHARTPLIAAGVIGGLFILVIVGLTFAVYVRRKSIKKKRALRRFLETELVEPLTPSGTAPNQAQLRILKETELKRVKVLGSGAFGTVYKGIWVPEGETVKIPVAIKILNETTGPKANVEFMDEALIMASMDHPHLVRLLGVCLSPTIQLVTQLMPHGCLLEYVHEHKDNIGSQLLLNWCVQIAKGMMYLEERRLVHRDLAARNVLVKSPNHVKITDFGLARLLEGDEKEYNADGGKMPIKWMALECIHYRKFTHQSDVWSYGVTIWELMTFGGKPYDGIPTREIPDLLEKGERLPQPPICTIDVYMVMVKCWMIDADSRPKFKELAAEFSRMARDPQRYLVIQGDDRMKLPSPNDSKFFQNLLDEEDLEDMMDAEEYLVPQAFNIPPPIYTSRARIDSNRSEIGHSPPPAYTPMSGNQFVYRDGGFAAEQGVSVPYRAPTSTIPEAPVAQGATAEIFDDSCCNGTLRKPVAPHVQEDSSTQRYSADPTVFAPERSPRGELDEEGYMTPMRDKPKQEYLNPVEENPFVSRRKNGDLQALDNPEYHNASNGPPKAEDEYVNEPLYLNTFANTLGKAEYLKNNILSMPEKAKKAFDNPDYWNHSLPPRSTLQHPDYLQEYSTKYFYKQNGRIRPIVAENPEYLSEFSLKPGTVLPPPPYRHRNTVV

ITK = ITK (Homo sapiens (Human), UniProt Q08881); test: ITK enzyme activity, IMAP assay; assay type: biochemical; settings: 60 min pre-incubation; 5 μM ATP
Sequence of ITK (Q08881 whole entry): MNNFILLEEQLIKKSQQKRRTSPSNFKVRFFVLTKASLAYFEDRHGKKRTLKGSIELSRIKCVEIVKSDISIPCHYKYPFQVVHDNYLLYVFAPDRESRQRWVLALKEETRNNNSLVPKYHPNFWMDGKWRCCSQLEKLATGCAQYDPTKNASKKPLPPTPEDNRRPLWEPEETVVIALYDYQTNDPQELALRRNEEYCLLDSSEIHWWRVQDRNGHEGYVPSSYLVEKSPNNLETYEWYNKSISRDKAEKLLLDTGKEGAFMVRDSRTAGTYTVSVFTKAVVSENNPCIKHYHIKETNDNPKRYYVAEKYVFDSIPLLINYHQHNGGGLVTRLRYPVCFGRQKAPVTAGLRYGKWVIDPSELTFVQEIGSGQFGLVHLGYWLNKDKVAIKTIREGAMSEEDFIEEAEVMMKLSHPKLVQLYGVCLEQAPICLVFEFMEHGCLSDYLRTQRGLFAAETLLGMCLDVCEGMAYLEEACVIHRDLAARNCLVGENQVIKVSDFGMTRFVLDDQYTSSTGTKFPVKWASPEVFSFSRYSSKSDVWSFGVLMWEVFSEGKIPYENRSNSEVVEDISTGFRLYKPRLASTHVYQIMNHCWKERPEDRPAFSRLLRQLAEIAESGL
Protocol: ITK enzyme activity is measured using the IMAP (immobilized metal ion affinity-based fluorescence polarization) assay as outlined below.
ITK enzyme (Millipore #14-660M) is diluted to 0.2 U/mL in KR buffer (10 mM Tris-HCl, 10 mM MgCl2, 0.01% Tween-20, 0.1% NaN3, 1 mM DTT, 2 mM MnCl2, pH 7.5)
as §2
as §3, with “ITK” for “BMX”, “#R8124,” for “#R7188,”

EGFR WT = EGFR WT (Homo sapiens (Human), UniProt P00533); test: EGFR enzyme activity, IMAP assay; assay type: biochemical; settings: 60 min pre-incubation; 2 μM ATP
Protocol: EGFR enzyme activity is measured using the IMAP (immobilized metal ion affinity-based fluorescence polarization) assay as outlined below.
EGFR enzyme (Invitrogen catalog #PR7295B), is diluted to 2.5 μg/mL in KR buffer (10 mM Tris-HCl, 10 mM MgCl2, 0.01% Tween-20, 0.1% NaN3, 1 mM DTT, 2 mM MnCl2, pH 7.5).
Final peptide substrate concentration in assay is 50 nM. […] Following incubation for 60 min at room temperature in the dark the enzyme reaction is stopped by adding 40 μL/well IMAP Progressive Binding Solution (according to suppliers (Molecular Devices) protocol using 20% 1× buffer A and 80% 1× buffer B with 600× diluted beads). After 60 min incubation at room temperature in the dark the FP signal is read. […] Values are calculated as percentage of the difference in readout (ΔmPi) of the controls with and without ATP. IC50 values are determined by curve fitting of the experimental results using GraphPad Prism6.

Sequence of Blk (P51451 whole entry): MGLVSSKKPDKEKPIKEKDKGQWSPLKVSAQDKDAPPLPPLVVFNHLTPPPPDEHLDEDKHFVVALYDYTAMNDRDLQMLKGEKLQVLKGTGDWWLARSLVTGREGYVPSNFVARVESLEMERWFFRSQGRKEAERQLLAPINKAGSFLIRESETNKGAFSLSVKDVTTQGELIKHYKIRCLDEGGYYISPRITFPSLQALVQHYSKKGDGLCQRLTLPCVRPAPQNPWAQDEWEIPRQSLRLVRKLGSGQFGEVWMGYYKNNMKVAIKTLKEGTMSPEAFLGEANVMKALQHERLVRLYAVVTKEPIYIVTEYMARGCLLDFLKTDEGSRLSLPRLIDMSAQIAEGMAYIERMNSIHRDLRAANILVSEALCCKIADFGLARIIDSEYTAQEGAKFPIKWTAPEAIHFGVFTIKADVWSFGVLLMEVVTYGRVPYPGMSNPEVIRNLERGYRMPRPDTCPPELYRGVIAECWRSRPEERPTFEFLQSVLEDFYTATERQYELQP

IC50 (Blk): 489 nM | IC50 (ErbB2): > 1000 nM | IC50 (BTK): 2.5 nM | IC50 (Txk): 16 nM | IC50 (Bmx): 14 nM | IC50 (Jak3): > 1000 nM | IC50 (ErbB4): 99 nM | IC50 (ITK): > 1000 nM | IC50 (EGFR WT): > 1000 nM
SMILES: CC#CC(=O)N1CCC[C@H]1c1nc(-c2ccc(C(=O)Nc3cc(C(F)(F)F)ccn3)c(OC)c2)c2c(N)nccn12
EC50 [1]: 3.7 nM
